From patent US5488033A, “Treatment to reduce edema” (The Regents of the University of California, priority 1994, dated 1996)
No end group written: not given here.

Legend:
[1] = test system: Freeze Injury to Brain (vascular permeability of brain); assay: Cold (freeze) injury to rat brain, vascular leakage by Monastral blue staining; type: in vivo
From the text: An in vivo model of injury to study brain edema has been developed as a reproducible edema model, which has the features of immediate cortical damage followed by the subsequent development of brain edema. This model is described by Chan et al., Brain Research, 277, pp. 329-337 (1983). The model uses rats which are anesthetized. A 2.5 cm incision is made over the sagittal suture and the bone of the right hemisphere exposed. A 60 mm^2 plate attached to a brass cup filled with dry ice-acetone mixture, with a temperature of -50° C., is applied to the rat skull for one minute. The animals are sacrificed at various intervals after the onset of cold-injury. A dye is administered intravenously before the freezing. Cortical slices are then obtained of the brain.
Sixteen male rats were randomly divided into eight pairs and one rat in each pair received either saline or CRF (subcutaneously twice at 30 μg/kg, 30 min and 10 min before cold injury). The animals were anesthetized with sodium pentobarbital, 60 mg/kg intraperitoneally, and injected with Monastral blue, 60 mg/kg intravenously. A cold probe was applied onto the skull for four minutes and the brains taken out one hour after cold injury. The staining of brain tissues with Monastral blue, a colloidal pigment that gets trapped between the albuminal surface of the endothelial cell and the basement membrane, was proportional to the degree of vascular leakage. The results from the first pair are shown as FIG. 1.
The size of the lesion, measured as area in mm^2, and the degree of staining intensity, were quantified using an image-analysis software program called JAVA (Jandel Corporation, San Rafael, Calif.). The stain intensity, given in arbitrary units, was internally calibrated using Monastral blue solutions (1-30 mg/ml) placed on white filter paper. Values are mean ± S.E.M.

[2] = test system: vascular leakage produced by PAF-acether; assay: Vascular leakage produced by PAF-acether injected subcutaneously into the abdomen; type: in vivo, rat
Protocol: CRF: 30 μg/kg s.c. injected 30 minutes before subcutaneous
injection of PAF-acether (1 μg/0.1 ml/rat) into the abdomen;
muscle removed 0.5 hour later.

[3] = test system: abdominal muscle wall (vascular leakage after celiotomy); assay: Vascular leakage after celiotomy (4 cm midline incision of abdominal muscle wall), Monastral blue; type: in vivo, rat; conditions: for Area / Intensity / Lesion Size: tissues 0.5 hour after surgery; for lesion size relative to that of the saline-treated group: celiotomy
Protocol: Experiments were conducted on male Sprague-Dawley rats 243±15 gm (S.D., Simonsen Labs., Gilroy, Calif.) anesthetized with sodium pentobarbital, 60 mg/kg i.p. Monastral blue, 60 mg/kg i.v., was injected 0.2 ml/100 g, 3 minutes before a 4 cm midline incision through the abdominal muscle wall (celiotomy). Saline or CRF was administered to randomized pairs with N=8 rats per group. The size of the lesion, measured as area in mm^2, and its light intensity, were quantified using the JAVA image-analysis software program. The light intensity, given in arbitrary units, was internally calibrated using Monastral blue solutions (1-30 mg/ml) placed on white filter paper. Values are mean ± S.E.M. FIG. 2 illustrates the respective amount of vascular permeability for one pair of rats (control and treated). Tables III and IV set out data from these experiments.
CRF: injected at various doses subcutaneously 30 minutes
before a 4 cm midline incision, tissues taken 0.5 hour
CRF: 30 μg/kg s.c. injected 2 hour before a 4 cm
midline incision, tissues taken 0.5 hour after surgery

[4] = test system: cerebral cortex and basal ganglia (brain edema); assay: Freeze injury of cerebral cortex, water and sodium content as index of brain edema; type: in vivo, rat; conditions: CRF 30 μg/kg s.c. 2×, ± S.E.M., N = 5
Protocol: In a second set of experiments, the brain surface, namely the cerebral cortex, was injured by freezing and the water and sodium content were measured in the cerebral cortex and in the basal ganglia, a part of the brain away from the freeze zone. The water and sodium content of the brain tissue served as an index of brain edema. After freeze injury, the water and sodium content of the cerebral cortex were evaluated relative to non-frozen tissues. CRF administered in two separate doses of 30 μg/kg subcutaneously, one dose 15 minutes before the injury and the second dose 90 minutes after the first dose, inhibited the two indices of brain edema.
Male SpragueDawley rats, 300-325 g, anesthetized with
ketamineacepromazine, were injected saline or CRF (30 μg/kg s.c.
2×) and injury to cerebral cortex was produced by applying a cold
probe to the skull for 1 min. Brain tissues were obtained 3 hr later and
analyzed for water and sodium content.

[5] = test system: neutropenic rats infected with Pseudomonas; assay: Neutropenic rat model of sepsis (Pseudomonas infection), survival; type: in vivo; conditions: CRF 100 μg/kg i.v. twice a day for four days after onset of fever; day 11; 9/15; P<0.002 vs saline (100% mortality by day 8)
From the text: The neutropenic rat model of sepsis, designed to mimic the systemic inflammatory response syndrome in humans, is described by Collins et al. from The Journal of Infectious Diseases, 159:6 (June 1989) and The Journal of Clinical Investigation, 88:885 (September 1991). […] The animals die from overwhelming infection within 7 to 9 days of infection and examination of the tissues with histological and pathological techniques reveal the characteristic organic manifestations of the systemic inflammatory response syndrome, namely, organ edema and tissue necrosis.
In a typical experiment, 10 rats serving as controls received saline and 15 rats received CRF at a dose of 100 μg/kg intravenously, given twice a day for four days after the onset of fever. At the end of 8 days, all of the animals in the control group were dead (100% mortality). By contrast, 60% (9/15) of the CRF group were still alive at day 11 when the experiment was concluded. The difference between the saline and CRF treated groups were statistically significant (P<0.002).

[6] = CRF 30 μg/kg s.c. twice, 30 min and 10 min before cold injury, brains taken 1 hour after injury, mean ± S.E.M.
[7] = CRF 30 μg/kg s.c. 30 minutes before PAF-acether 1 μg/0.1 ml/rat s.c., muscle removed 0.5 hour later
[8] = CRF 15 μg/kg s.c. 30 minutes before incision
[9] = CRF 30 μg/kg s.c. 30 minutes before incision
[10] = CRF 30 μg/kg s.c. 2 hour before incision
[11] = CRF 60 μg/kg s.c. 30 minutes before incision
[12] = injured cerebral cortex, tissue 3 hr after 1 min cold probe
[13] = non-injured basal ganglia, tissue 3 hr after injury

## CRF: 41 amino acid neuropeptide, mammalian corticotropin-releasing factor; stimulates ACTH release from pituitary cells (SEEPPISLDLTFHLLREVLEMARAEQLAQQAHSNRKLMEII; not fully specified; ends and bridges not checked; UniProt P06850 154-194, looked up)
[1]; [6]
  Area: 20.8 ± 1.2 mm^2
  Intensity (staining intensity): 2.0 ± 0.05 arbitrary units
  Lesion Size: 43 ± 3
[1]; brain cold injury, CRF 30 μg/kg s.c. twice
  lesion size relative to that of the saline-treated group: 44%
[1]; eight pairs of rats, more damaged vs less damaged brain
  correct assignment of brains to saline or CRF group by an observer unaware of pretreatment: 8 out of 8
[2]; CRF 30 μg/kg s.c. 30 minutes before PAF-acether
  muscle lesion size relative to that of the saline-treated control group: 44%
[2]; [7]
  Area: 188 ± 16 mm^2
  Intensity: 1.4 ± 0.05
  Lesion Size: 260 ± 26
[3]; [8]
  Area: 505 ± 16 mm^2
  Intensity: 2.0 ± 0.03 arbitrary units
  Lesion Size: 1031 ± 44
  lesion size relative to that of the saline-treated group: 63%
[3]; [9]
  Area: 361 ± 18 mm^2
  Intensity: 1.9 ± 0.05 arbitrary units
  Lesion Size: 676 ± 47
  lesion size relative to that of the saline-treated group: 42%
[3]; [10]
  Area: 477 ± 31 mm^2
  Intensity: 1.9 ± 0.03 arbitrary units
  Lesion Size: 919 ± 51
[3]; [11]
  Area: 257 ± 3 mm^2
  Intensity: 1.8 ± 0.05 arbitrary units
  Lesion Size: 468 ± 19
  lesion size relative to that of the saline-treated group: 29%
[3]; CRF 30 μg/kg s.c. 2 hours before injury
  lesion size relative to that of the saline-treated group: 59%
[4]; [12]
  SODIUM, cerebral cortex: 271 ± 8 mEg/kg dry wt
  WATER CONTENT, cerebral cortex: 77 ± 4%
[4]; [13]
  SODIUM, basal ganglia: 215 ± 9 mEg/kg dry wt
  WATER CONTENT, basal ganglia: 76 ± 1%
[5]
  animals still alive (survival): 60%
